Test system: Kinase
Assay: In vitro assays: kinase
Type: biochemical
Conditions: 63 kinase family members including Raf, MEK, ERK, AKT, CDK1-4

Cc1nn(-c2nc(-c3ccc(C(F)(F)F)cc3)c(SC(C)C)s2)c(C(=O)O)c1-c1cccc(F)c1 [Compound A197, 4-(3-fluorophenyl)-1-(5-(isopropylthio)-4-(4-(trifluoromethyl)phenyl)thiazol-2-yl)-3-methyl-1H-pyrazole-5-carboxylic acid]
Outcome: Kinase: No activity on 63 kinase family members including Raf,
